Where two headings read alike, the source gives them in different places.
Test system: Dkk1-LRP5-TCF-Luciferase
Assay: Functional Dkk1-LRP5-TCF-Luciferase Assay in U2OS Cells
Conditions: for fold induction at 20 µM: read-out: C = TCF ACTIVITY/DMSO CONTROL Fold induction @ 20.0 uM, 20.0 uM compound; for A = MAX FOLD Induction/DMSO CONTROL: maximum fold induction over DMSO control; for C = TCF ACTIVITY/DMSO CONTROL Fold induction @ 20.0 uM: 20.0 uM compound
[1] = Homo sapiens, U2OS, read-out: B = TCF ACTIVITY/DMSO CONTROL Fold induction @ 2.0 uM, 2.0 uM compound

A = MAX FOLD Induction/DMSO CONTROL [fold]	EC50 [µM]	C = TCF ACTIVITY/DMSO CONTROL Fold induction @ 20.0 uM [fold]	EC50 (Homo sapiens, U2OS) [µM]	SMILES	fold induction at 2 µM [1]	fold induction at 20 µM (Homo sapiens, U2OS)	fold induction at 2 µM (Homo sapiens, U2OS, read-out: B = TCF ACTIVITY/DMSO CONTROL Fold induction @ 2.0 uM)
				O=[N+]([O-])CC1CCN(c2nccc(-c3ccc4ccccc4c3)n2)CC1 [4-(2-naphthyl)-2-[4-(nitromethyl)piperidin-1-yl]pyrimidine]	1.5	0.68	
2.510				c1ccc2cc(-c3ccnc(N4CCC(CN5CCNCC5)CC4)n3)ccc2c1 [4-(2-naphthyl)-2-[4-(piperazin-1-ylmethyl)piperidin-1-yl]pyrimidine]	5.17	0.01	
	8.59	1.687	8	c1ccc2cc(-c3ccnc(N4CCC(CN5CCCCC5)CC4)n3)ccc2c1 [4-(2-naphthyl)-2-[4-(piperidin-1-ylmethyl)piperidin-1-yl]pyrimidine]	1.09	2.8	
	3.18		3.5	c1ccc2cc(-c3ccnc(N4CCC(CN5CCCC5)CC4)n3)ccc2c1 [4-(2-naphthyl)-2-[4-(pyrrolidin-1-ylmethyl)piperidin-1-yl]pyrimidine]	2.07		
				O=C([C@H]1CCCN1c1nccc(-c2ccc3ccccc3c2)n1)N1CCCCC1 [4-(2-naphthyl)-2-[(2R)-2-(piperidin-1-ylcarbonyl)pyrrolidin-1-yl]pyrimidine]	1.01		
				O=C([C@H]1CCCN1c1nccc(-c2ccc3ccccc3c2)n1)N1CCCC1 [4-(2-naphthyl)-2-[(2R)-2-(pyrrolidin-1-ylcarbonyl)pyrrolidin-1-yl]pyrimidine]	1.05	1.1	
				O=C([C@@H]1CCCN1c1nccc(-c2ccc3ccccc3c2)n1)N1CCCCC1 [4-(2-naphthyl)-2-[(2S)-2-(piperidin-1-ylcarbonyl)pyrrolidin-1-yl]pyrimidine]	1.91		
				O=C([C@@H]1CCCN1c1nccc(-c2ccc3ccccc3c2)n1)N1CCCC1 [4-(2-naphthyl)-2-[(2S)-2-(pyrrolidin-1-ylcarbonyl)pyrrolidin-1-yl]pyrimidine]	0.87	1.07	
				c1ccc2cc(-c3ccnc(N4CC[C@H](CN5CCCCC5)C4)n3)ccc2c1 [4-(2-naphthyl)-2-[(3R)-3-(piperidin-1-ylmethyl)pyrrolidin-1-yl]pyrimidine]	1.21	1.34	
6.053			7.67	c1ccc2cc(-c3ccnc(N4CC[C@H](CN5CCCC5)C4)n3)ccc2c1 [4-(2-naphthyl)-2-[(3R)-3-(pyrrolidin-1-ylmethyl)pyrrolidin-1-yl]pyrimidine]	1.5	6.07	
2.510				c1ccc2cc(-c3ccnc(N4CC[C@@H](N5CCNCC5)C4)n3)ccc2c1 [4-(2-naphthyl)-2-[(3R)-3-piperazin-1-ylpyrrolidin-1-yl]pyrimidine]	3.44		
				c1ccc2cc(-c3ccnc(N4CC[C@@H](N5CCCCC5)C4)n3)ccc2c1 [4-(2-naphthyl)-2-[(3R)-3-piperidin-1-ylpyrrolidin-1-yl]pyrimidine]	1.29	0.06	
				c1ccc2cc(-c3ccnc(N4CC[C@@H](CN5CCCCC5)C4)n3)ccc2c1 [4-(2-naphthyl)-2-[(3S)-3-(piperidin-1-ylmethyl)pyrrolidin-1-yl]pyrimidine]	1.34	1.06	
4.050				c1ccc2cc(-c3ccnc(N4CC[C@@H](CN5CCCC5)C4)n3)ccc2c1 [4-(2-naphthyl)-2-[(3S)-3-(pyrrolidin-1-ylmethyl)pyrrolidin-1-yl]pyrimidine]	1.9	5.18	
7.520			1.1	c1ccc2cc(-c3ccnc(N4CC[C@H](N5CCNCC5)C4)n3)ccc2c1 [4-(2-naphthyl)-2-[(3S)-3-piperazin-1-ylpyrrolidin-1-yl]pyrimidine]	6.16		
				c1ccc2cc(-c3ccnc(N4CC[C@H](N5CCCCC5)C4)n3)ccc2c1 [4-(2-naphthyl)-2-[(3S)-3-piperidin-1-ylpyrrolidin-1-yl]pyrimidine]	1.65		
				c1ccc2cc(-c3ccnc(N4CCCCC4)n3)ccc2c1 [4-(2-naphthyl)-2-piperidin-1-ylpyrimidine]	0.92	1.79	
				c1ccc2cc(-c3ccnc(N4CCCC4)n3)ccc2c1 [4-(2-naphthyl)-2-pyrrolidin-1-ylpyrimidine]	1.97		
				c1ccc(CCNc2nccc(-c3ccc4ccccc4c3)n2)cc1 [4-(2-naphthyl)-N-(2-phenylethyl)pyrimidin-2-amine]	1.91		

A = MAX FOLD Induction/DMSO CONTROL [fold]	EC50 [µM]	C = TCF ACTIVITY/DMSO CONTROL Fold induction @ 20.0 uM [fold]	EC50 (Homo sapiens, U2OS) [µM]	SMILES	fold induction at 2 µM [1]	fold induction at 20 µM (Homo sapiens, U2OS)	fold induction at 2 µM (Homo sapiens, U2OS, read-out: B = TCF ACTIVITY/DMSO CONTROL Fold induction @ 2.0 uM)
				c1cncc(CCNc2nccc(-c3ccc4ccccc4c3)n2)c1 [4-(2-naphthyl)-N-(2-pyridin-3-ylethyl)pyrimidin-2-amine]	1.15	1.04	
2.765			0.98	c1ccc2cc(-c3ccnc(NCCc4ccncc4)n3)ccc2c1 [4-(2-naphthyl)-N-(2-pyridin-4-ylethyl)pyrimidin-2-amine]	1.96	0.375	
6.120				c1ccc2cc(-c3ccnc(NCC4CCNCC4)n3)ccc2c1 [4-(2-naphthyl)-N-(piperidin-4-ylmethyl)pyrimidin-2-amine]	1.33	1.36	
2.690				c1ccc(CNc2nccc(-c3ccc4ccccc4c3)n2)nc1 [4-(2-naphthyl)-N-(pyridin-2-ylmethyl)pyrimidin-2-amine]	1.72	1.55	
1.960			5.9	c1cncc(CNc2nccc(-c3ccc4ccccc4c3)n2)c1 [4-(2-naphthyl)-N-(pyridin-3-ylmethyl)pyrimidin-2-amine]	1.55	1.41	
2.070			2.42	c1ccc2cc(-c3ccnc(NCc4ccncc4)n3)ccc2c1 [4-(2-naphthyl)-N-(pyridin-4-ylmethyl)pyrimidin-2-amine]	1.41	1.7	
				O=C(N1CCCC1)N1CCC(Nc2nccc(-c3ccc4ccccc4c3)n2)CC1 [4-(2-naphthyl)-N-[1-(pyrrolidin-1-ylcarbonyl)piperidin-4-yl]pyrimidin-2-amine]	1.06	0.96	
6.560			9.23	c1ccc2cc(-c3ccnc(N[C@@H]4CCNC4)n3)ccc2c1 [4-(2-naphthyl)-N-[(3R)-pyrrolidin-3-yl]pyrimidin-2-amine]	1.76	3.98	
7.510			3.88	c1ccc2cc(-c3ccnc(NC[C@@H]4CCNC4)n3)ccc2c1 [4-(2-naphthyl)-N-[(3R)-pyrrolidin-3-ylmethyl]pyrimidin-2-amine]		0.06	
1.360				c1ccc2cc(-c3ccnc(N[C@H]4CCNC4)n3)ccc2c1 [4-(2-naphthyl)-N-[(3S)-pyrrolidin-3-yl]pyrimidin-2-amine]	2.84	0.89	
6.810			3.74	c1ccc2cc(-c3ccnc(NC[C@H]4CCNC4)n3)ccc2c1 [4-(2-naphthyl)-N-[(3S)-pyrrolidin-3-ylmethyl]pyrimidin-2-amine]			
3.723			4.12	c1ccc2cc(-c3ccnc(NC4CCNCC4)n3)ccc2c1 [4-(2-naphthyl)-N-piperidin-4-ylpyrimidin-2-amine]	1.47	1.75	
				CCCNc1nccc(-c2ccc3ccccc3c2)n1 [4-(2-naphthyl)-N-propylpyrimidin-2-amine]	1.28		
				O=C(Cc1ccccc1)N1CCC(CNc2nccc(-c3ccc4ccccc4c3)n2)CC1 [4-(2-naphthyl)-N-{[1-(phenylacetyl)piperidin-4-yl]methyl}pyrimidin-2-amine]	1.03	1.87	
				O=C(N1CCCC1)N1CCC(CNc2nccc(-c3ccc4ccccc4c3)n2)CC1 [4-(2-naphthyl)-N-{[1-(pyrrolidin-1-ylcarbonyl)piperidin-4-yl]methyl}pyrimidin-2-amine]	1.08	0.907	
				O=C(N1CC(CNc2nccc(-c3ccc4ccccc4c3)n2)C1)C(F)(F)F [4-(2-naphthyl)-N-{[1-(trifluoroacetyl)azetidin-3-yl]methyl}pyrimidin-2-amine]	1.5		
2.400		3.000	4.6	c1ccc2cc(-c3ccnc(N4CCN(CCN5CCOCC5)CC4)n3)ccc2c1 [4-(2-{4-[4-(2-naphthyl)pyrimidin-2-yl]piperazin-1-yl}ethyl)morpholine]	1.53	3.49	
				c1ccc2cc(-c3ccnc(N4CCN(CCCN5CCOCC5)CC4)n3)ccc2c1 [4-(3-{4-[4-(2-naphthyl)pyrimidin-2-yl]piperazin-1-yl}propyl)morpholine]	1.29	0.01	
2.950			1.18	NCC1(O)CCN(c2nccc(-c3ccc4ccccc4c3)n2)CC1 [4-(aminomethyl)-1-[4-(2-naphthyl)pyrimidin-2-yl]piperidin-4-ol]	1.6		

SMILES	A = MAX FOLD Induction/DMSO CONTROL [fold]	EC50 [µM]	C = TCF ACTIVITY/DMSO CONTROL Fold induction @ 20.0 uM [fold]	EC50 (Homo sapiens, U2OS) [µM]	fold induction at 2 µM [1]	fold induction at 20 µM (Homo sapiens, U2OS)	fold induction at 2 µM (Homo sapiens, U2OS, read-out: B = TCF ACTIVITY/DMSO CONTROL Fold induction @ 2.0 uM)
c1ccc2cc(-c3ccnc(N4CCNCC4)n3)ccc2c1 [4-(2-naphthyl)-2-piperazin-1-ylpyrimidine]	2.050						2.64

Reference: patent US20090054392A1, “NAPHTHYLPYRIMIDINE, NAPHTHYLPYRAZINE AND NAPHTHYLPYRIDAZINE ANALOGS AND THEIR USE AS AGONISTS OF THE WNT-BETA-CATENIN CELLULAR MESSAGING SYSTEM” (Wyeth, priority 2007, published 2009)
